These results are taken from patent US4018895A, “Aryloxyphenylpropylamines in treating depression” (Eli Lilly and Company, priority 1975, dated 1977).

For assay [1], the system named is norepinephrine uptake by synaptosomes from rat brain. The assay is described as follows: In vitro blockade of norepinephrine uptake by synaptosomes from rat brain. Particulars: norepinephrine 0.48 μM. In kind it is biochemical. From the text:
(§1) This blockade is shown both in vitro with radioactive labelled compounds to determine the amount of monoamine uptake by synaptosomes from rat brain, and in vivo by a variety of methods. Among the physiologically active monoamines whose uptake is blocked by the compounds of this invention are included serotonin, norepinephrine and dopamine (3,4-dihydroxyphenylethylamine). […] Tables 1 and 2 which follow set forth the results of some of the in vitro determinations of the blockage of monoamine uptake by the compounds of this invention. In the tables, column 1 gives the R substituent on the 3-phenylpropylamine and columns 2-4, the concentration in micrograms per ml. that blocks the uptake of a particular amine by 50 percent for the amines--norephinephrine, serotonin, and dopamine. At the head of each column is given the concentration of the particular monoamine used in the experiment.

Assay [2] deals with serotonin uptake by synaptosomes from rat brain. Briefly: In vitro blockade of serotonin uptake by synaptosomes from rat brain. Conditions: serotonin 0.1 μM. It is filed as biochemical.
Excerpt: as §1

For assay [3], the system named is dopamine uptake by synaptosomes from rat brain. The assay is described as follows: In vitro blockade of dopamine uptake by synaptosomes from rat brain. It is filed as biochemical. Conditions: dopamine 0.2 μM.
Excerpt: as §1

Assay [4] deals with hypothermia induced by the injection of apomorphine. Briefly: Apomorphine hypothermia antagonism test. It is filed as in vivo, mice. Particulars: Pre-30 min., mice. Here is the method: The apomorphine hypothermia antagonism test is carried out as follows: mice are injected with a dose of apomorphine known to reduce body temperature approximately 4° C. […] The degree of antagonism is expressed as a percent reduction (as compared with controls) of the temperature decrease produced by the injection of the apomorphine. The reserpine hypothermia reversal test is carried out as follows: groups of mice are injected with reserpine and 16.5 hours later are injected intraperitoneally with graded doses of the drug, a different dose level being given to each group of mice. Temperatures are measured at 1 hour after injection of the drug under test and again the effectiveness of the drug is expressed as a percentage decrease in the hypothermia induced by the injection of reserpine as compared with the control group. In the tablets which follow, Table 4 gives the results in the apomorphine antagonism and reserpine reversal hypothermia tests for the secondary amines of this invention. In the table, the first column gives the substituent attached to the oxygen atom at the 3 position of the propylamine chain; columns 2 to 4 the percent antagonism against apomorphine hypothermia at dose levels of 0.3, 1 and 3 mg./kg. and columns 5-7 the percent reversal of reserpine hypothermia at the same dose levels.

In assay [5] the test system is hypothermia induced by the injection of reserpine. Briefly: Reserpine hypothermia reversal test. It is filed as in vivo, mice. Particulars: Mus musculus, ip, 1 h, Post-60 min., mice, read-out: Percent Antagonism Reserpine; for inhibition in vivo at 1 mg/kg: 1 mg./kg. intraperitoneally; for inhibition in vivo at 3 mg/kg: 3 mg./kg. intraperitoneally; for inhibition in vivo at 0.3 mg/kg: .3 mg./kg. intraperitoneally; for inhibition in vivo at 10 mg/kg: 10 mg./kg. intraperitoneally. Here is the method:
The apomorphine hypothermia antagonism test is carried out as follows: mice are injected with a dose of apomorphine known to reduce body temperature approximately 4° C. The compound under test is injected 1/2 hour before the injection of the apomorphine and the temperatures measured 1/2 hour after injection. The degree of antagonism is expressed as a percent reduction (as compared with controls) of the temperature decrease produced by the injection of the apomorphine. The reserpine hypothermia reversal test is carried out as follows: groups of mice are injected with reserpine and 16.5 hours later are injected intraperitoneally with graded doses of the drug, a different dose level being given to each group of mice. Temperatures are measured at 1 hour after injection of the drug under test and again the effectiveness of the drug is expressed as a percentage decrease in the hypothermia induced by the injection of reserpine as compared with the control group. In the tablets which follow, Table 4 gives the results in the apomorphine antagonism and reserpine reversal hypothermia tests for the secondary amines of this invention. In the table, the first column gives the substituent attached to the oxygen atom at the 3 position of the propylamine chain; columns 2 to 4 the percent antagonism against apomorphine hypothermia at dose levels of 0.3, 1 and 3 mg./kg. and columns 5-7 the percent reversal of reserpine hypothermia at the same dose levels.

The mark [6] stands for this setting: Mus musculus, Table 4, secondary amines, 1 mg./kg., read-out: Percent Antagonism Apomorphine.
[7] abbreviates: Mus musculus, Table 4, secondary amines, 3 mg./kg., read-out: Percent Antagonism Apomorphine.
Setting [8] is: Mus musculus, Table 5, dimethylamino compounds, 1 mg./kg., read-out: Percent Antagonism Apomorphine.
The mark [9] stands for this setting: Mus musculus, Table 5, dimethylamino compounds, 3 mg./kg., read-out: Percent Antagonism Apomorphine.
Where [10] appears, read: Mus musculus, Table 5, dimethylamino compounds, 10 mg./kg., read-out: Percent Antagonism Apomorphine.
The mark [11] stands for this setting: Table 5, dimethylamino compounds.
Setting [12] is: Table 5, dimethylamino compounds, 1 mg./kg.
Where [13] appears, read: Table 5, dimethylamino compounds, 3 mg./kg.
Setting [14] is: Table 5, dimethylamino compounds, 10 mg./kg.

Structures can show the parent of a compound that is named as a salt. Where two headings read alike, the source gives them in different places.

Turning to `CNCCC(Oc1cccc(OC)c1)c1ccccc1.O=C(O)C(=O)O` (centres unmarked) [m-anisyl, N-methyl 3-phenyl-3-(m-methoxyphenoxy)propylamine oxalate], in assay [1] (Table 2, scaffold drawing 4), the “Concentration that blocks 50% of amine uptake, Norepinephrine” value was “.15 µg/mL”. Besides, in assay [2] (Table 2, scaffold drawing 4), the “Concentration that blocks 50% of amine uptake, Serotonin” value was found to be 4.5 µg/mL. Also, in assay [3] (Table 2, scaffold drawing 4), the “Concentration that blocks 50% of amine uptake, Dopamine” value was “.45 µg/mL”. Also, the inhibition in vivo at 1 mg/kg in assay [4] (setting [6]) is 15%; in assay [4] (setting [8]) it was -12%; in assay [5] (Table 4, secondary amines) it was 21%; in assay [5] (setting [11]) it was -1%. Further, the inhibition in vivo at 3 mg/kg in assay [4] (setting [7]) was 71%; in assay [4] (setting [9]), -7%; in assay [5] (Table 4, secondary amines) it was 21%; in assay [5] (setting [11]) it was 6%. For the same molecule, the inhibition in vivo at 0.3 mg/kg turned out to be 15% in assay [4] (Mus musculus, Table 4, secondary amines, .3 mg./kg., read-out: Percent Antagonism Apomorphine) and 8% in assay [5] (Table 4, secondary amines). The inhibition in vivo at 10 mg/kg is -5% in assay [4] (setting [10]) and 5% in assay [5] (setting [11]).
On to `CN(C)CCC(Oc1ccc(F)cc1F)c1ccccc1` (centres unmarked) [2,4-difluorophenyl], for which the “Concentration that blocks 50% of amine uptake, Norepinephrine” value was “.2 mcq./ml” in assay [1] (Table 1, scaffold drawing 3) and greater than 100 µg/mL in assay [1] (Table 2, scaffold drawing 4). The “Concentration that blocks 50% of amine uptake, Serotonin” value is “.3 mcq./ml” in assay [2] (Table 1, scaffold drawing 3) and 4.5 µg/mL in assay [2] (Table 2, scaffold drawing 4). Besides, the “Concentration that blocks 50% of amine uptake, Dopamine” value in assay [3] (Table 1, scaffold drawing 3) was 10 mcq./ml; in assay [3] (Table 2, scaffold drawing 4), greater than 100 µg/mL. Besides, the “Percent Antagonism Apomorphine” value amounted to 53% in assay [4] (Table 4, secondary amines, 1 mg./kg.); 64% in assay [4] (Table 4, secondary amines, 3 mg./kg.); 20% in assay [4] (Table 4, secondary amines, .3 mg./kg.); 26% in assay [4] (setting [12]); 55% in assay [4] (setting [13]); 98% in assay [4] (setting [14]). Moreover, the inhibition in vivo at 1 mg/kg in assay [5] (Table 4, secondary amines) turned out to be 17%; in assay [5] (setting [11]), 11%. Moreover, the inhibition in vivo at 3 mg/kg worked out at 27% in assay [5] (Table 4, secondary amines) and 12% in assay [5] (setting [11]). In addition, the inhibition in vivo at 0.3 mg/kg was 13% in assay [5] (Table 4, secondary amines) and 23% in assay [5] (setting [11]). The inhibition in vivo at 10 mg/kg in assay [5] (setting [11]) was determined as 30%.
As to `CC(C)c1ccccc1OC(CCN(C)C)c1ccccc1` (centres unmarked) [o-isopropylphenyl, oxalate], the “Concentration that blocks 50% of amine uptake, Norepinephrine” value in assay [1] (Table 1, scaffold drawing 3) stood at 1.5 mcq./ml. Besides, the “Concentration that blocks 50% of amine uptake, Serotonin” value in assay [2] (Table 1, scaffold drawing 3) is reported as greater than 100 mcq./ml. The “Concentration that blocks 50% of amine uptake, Dopamine” value in assay [3] (Table 1, scaffold drawing 3) is on record as greater than 100 mcq./ml. Moreover, in assay [4] (setting [12]), the “Percent Antagonism Apomorphine” value is 17%. For the same molecule, in assay [4] (setting [13]), the “Percent Antagonism Apomorphine” value is given as 39%. The “Percent Antagonism Apomorphine” value in assay [4] (setting [14]) is 65%. Moreover, the “Percent Antagonism Apomorphine” value in assay [4] (Table 5, dimethylamino compounds, .3 mg./kg.) is on record as 3%. In assay [5] (setting [11]), the inhibition in vivo at 1 mg/kg turned out to be 20%, the inhibition in vivo at 3 mg/kg was determined as 28%, the inhibition in vivo at 10 mg/kg stood at 35% and the inhibition in vivo at 0.3 mg/kg amounted to 12%.
For the molecule `CCOc1ccccc1OC(CCN(C)C)c1ccccc1.O=C(O)C(=O)O` (centres unmarked) [o-phenetyl, N,N-dimethyl 3-(o-ethoxyphenoxy)-3-phenylpropylamine oxalate], the “Concentration that blocks 50% of amine uptake, Norepinephrine” value in assay [1] (Table 1, scaffold drawing 3) was 3 mcq./ml. Moreover, the “Concentration that blocks 50% of amine uptake, Serotonin” value in assay [2] (Table 1, scaffold drawing 3) came to 6 mcq./ml. In assay [3] (Table 1, scaffold drawing 3), the “Concentration that blocks 50% of amine uptake, Dopamine” value is given as greater than 100 mcq./ml. Besides, the inhibition in vivo at 3 mg/kg was found to be 13% in assay [4] (setting [9]) and 16% in assay [5] (setting [11]). Further, the inhibition in vivo at 10 mg/kg stood at 76% in assay [4] (setting [10]) and 40% in assay [5] (setting [11]).
On to `CCc1ccccc1OC(CCN(C)C)c1ccccc1.O=C(O)C(=O)O` (centres unmarked) [o-ethylphenyl, N,N-dimethyl 3-(o-ethylphenoxy)-3-phenylpropylamine oxalate], for which the “Concentration that blocks 50% of amine uptake, Norepinephrine” value in assay [1] (Table 1, scaffold drawing 3) is recorded as greater than 100 mcq./ml. For the same molecule, the “Concentration that blocks 50% of amine uptake, Serotonin” value in assay [2] (Table 1, scaffold drawing 3) is 3.5 mcq./ml. Besides, the “Concentration that blocks 50% of amine uptake, Dopamine” value in assay [3] (Table 1, scaffold drawing 3) is listed as greater than 100 mcq./ml. Moreover, the inhibition in vivo at 3 mg/kg in assay [4] (setting [9]) was 20%. For the same molecule, the inhibition in vivo at 10 mg/kg in assay [4] (setting [10]) worked out at 74%. Moreover, in assay [5] (setting [11]), the inhibition in vivo at 1 mg/kg was found to be 17%, the inhibition in vivo at 3 mg/kg is 13% and the inhibition in vivo at 10 mg/kg is 35%.
Turning to `CN(C)CCC(Oc1ccccc1C(F)(F)F)c1ccccc1.Cc1ccc(S(=O)(=O)O)cc1` (centres unmarked) [o-trifluoromethylphenyl, N,N-dimethyl 3-(o-trifluoromethylphenoxy)-3-phenylpropylamine p-toluene-sulfonate], the “Concentration that blocks 50% of amine uptake, Norepinephrine” value is 70 mcq./ml in assay [1] (Table 1, scaffold drawing 3) and 6.0 µg/mL in assay [1] (Table 2, scaffold drawing 4). The “Concentration that blocks 50% of amine uptake, Serotonin” value in assay [2] (Table 1, scaffold drawing 3) was “.16 mcq./ml”; in assay [2] (Table 2, scaffold drawing 4), 2.5 µg/mL. For the same molecule, the “Concentration that blocks 50% of amine uptake, Dopamine” value is greater than 100 mcq./ml in assay [3] (Table 1, scaffold drawing 3) and greater than 100 µg/mL in assay [3] (Table 2, scaffold drawing 4). In addition, the inhibition in vivo at 1 mg/kg in assay [4] (setting [6]) worked out at 13%; in assay [4] (setting [8]), 21%; in assay [5] (Table 4, secondary amines), 9%. Also, the inhibition in vivo at 3 mg/kg in assay [4] (setting [7]) worked out at 28%; in assay [4] (setting [9]) it was 32%; in assay [5] (Table 4, secondary amines), 8%. In addition, the inhibition in vivo at 10 mg/kg came out at 55% in assay [4] (setting [10]) and 10% in assay [5] (setting [11]).
In the case of `CN(C)CCC(Oc1cccc2ccccc12)c1ccccc1.O=C(O)/C=C\C(=O)O` (stereo not drawn) [α-naphthyl, N,N-dimethyl 3-(α-naphthyloxy)-3-phenylpropylamine maleate], the “Concentration that blocks 50% of amine uptake, Norepinephrine” value in assay [1] (Table 1, scaffold drawing 3) was determined as 3 mcq./ml. Moreover, the “Concentration that blocks 50% of amine uptake, Serotonin” value in assay [2] (Table 1, scaffold drawing 3) is reported as “.03 mcq./ml”. The “Concentration that blocks 50% of amine uptake, Dopamine” value in assay [3] (Table 1, scaffold drawing 3) worked out at 2.5 mcq./ml. Also, the figures for the inhibition in vivo at 1 mg/kg in assay [4] (setting [8]) and in assay [5] (setting [11]) were -17% and 15%, respectively. In addition, the results for the inhibition in vivo at 3 mg/kg in assay [4] (setting [9]) and in assay [5] (setting [11]) were -10% and 4%, respectively. Further, the inhibition in vivo at 10 mg/kg was -7% in assay [4] (setting [10]) and 15% in assay [5] (setting [11]).
